Data as given in ChEMBL document CHEMBL1201862, “PubChem BioAssay data set” (2004).
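Dose response: 5 concentrations. Exposure: 48 h. Format: 96-well plates. Endpoint: linear interpolation; highest concentration if not reached. GI50: concentration for 50% inhibition of growth.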 The source made the active and inactive calls. Cut-off read from the data, not from the text of the source: active = GI50 up to about 1.1 µM and inactive = higher.

Tests used:
Assay in all cases: NCI anticancer screen, dose series, 48 h
SF-539 = test system: SF-539
SK-MEL-28 = test system: SK-MEL-28
SK-OV-3 = test system: SK-OV-3
Malme-3M = test system: Malme-3M
UO-31 = test system: UO-31
MCF7 = test system: MCF7
HCT-116 = test system: HCT-116
M14 = test system: M14
OVCAR-4 = test system: OVCAR-4
RPMI-8226 = test system: RPMI-8226
A549 = test system: A549
UACC-62 = test system: UACC-62
OVCAR-8 = test system: OVCAR-8
MDA-N = test system: MDA-N
NCI-H226 = test system: NCI-H226
SW-620 = test system: SW-620
MDA-MB-231 = test system: MDA-MB-231
SNB-19 = test system: SNB-19
EKVX = test system: EKVX
UACC-257 = test system: UACC-257

Measured: GI50

Cn1c(=O)c2sc3c4sc5c(=O)n(C)c6ccccc6c5c4sc3c2c2ccccc21
inactive: SF-539 > 100 µM | SK-MEL-28 > 100 µM | SK-OV-3 > 100 µM | Malme-3M > 100 µM | UO-31 > 100 µM | MCF7 > 100 µM | HCT-116 > 100 µM | M14 > 100 µM | OVCAR-4 98.9 µM | RPMI-8226 > 100 µM | A549 > 100 µM | UACC-62 > 100 µM | OVCAR-8 > 100 µM | MDA-N > 100 µM | NCI-H226 > 100 µM | SW-620 > 100 µM | MDA-MB-231 31.5 µM | SNB-19 22.4 µM | EKVX > 100 µM | UACC-257 > 100 µM

CC(C)(C)OC(=O)N(O)[C@@H]1CC[C@H](n2cnc3c(N)ncnc32)C1
inactive: SF-539 > 100 µM | SK-MEL-28 > 100 µM | SK-OV-3 > 100 µM | Malme-3M > 100 µM | UO-31 96.8 µM | MCF7 > 100 µM | HCT-116 > 100 µM | M14 > 100 µM | OVCAR-4 > 100 µM | RPMI-8226 > 100 µM | A549 > 100 µM | UACC-62 > 100 µM | OVCAR-8 > 100 µM | MDA-N > 100 µM | NCI-H226 > 100 µM | SW-620 > 100 µM | MDA-MB-231 > 100 µM | SNB-19 > 100 µM | EKVX > 100 µM | UACC-257 > 100 µM

COC(=O)c1ccc(NCc2c(O)ccc(O)c2Br)cc1Cl
inactive: SF-539 14.2 µM | SK-MEL-28 16.8 µM | SK-OV-3 > 100 µM | Malme-3M 18.3 µM | UO-31 15.8 µM | MCF7 16 µM | HCT-116 17.8 µM | M14 17.5 µM | OVCAR-4 18.2 µM | RPMI-8226 3.56 µM | A549 54.7 µM | UACC-62 15.7 µM | OVCAR-8 14.7 µM | MDA-N 12 µM | NCI-H226 31.5 µM | SW-620 12.2 µM | MDA-MB-231 15.2 µM | SNB-19 25.9 µM | EKVX 14.6 µM | UACC-257 25.2 µM

c1ccc(CNCCN2CCNCC2)nc1
inactive: SF-539 > 100 µM | SK-MEL-28 > 100 µM | SK-OV-3 > 100 µM | Malme-3M > 100 µM | UO-31 > 100 µM | MCF7 > 100 µM | HCT-116 > 100 µM | M14 > 100 µM | OVCAR-4 > 100 µM | RPMI-8226 > 100 µM | A549 > 100 µM | UACC-62 > 100 µM | OVCAR-8 > 100 µM | MDA-N > 100 µM | NCI-H226 > 100 µM | SW-620 > 100 µM | MDA-MB-231 > 100 µM | SNB-19 > 100 µM | EKVX > 100 µM | UACC-257 > 100 µM

CC(C)c1ccc(C2NC(S)=NC3=C2c2ccccc2C3=O)cc1 (stereo not given)
inactive: SF-539 18.7 µM | SK-MEL-28 21.1 µM | SK-OV-3 25.4 µM | Malme-3M 26.2 µM | UO-31 21.5 µM | MCF7 10.2 µM | HCT-116 23.6 µM | M14 28 µM | OVCAR-4 21.6 µM | RPMI-8226 23.2 µM | A549 28.6 µM | UACC-62 12 µM | OVCAR-8 32.1 µM | MDA-N 5.31 µM | NCI-H226 34.4 µM | SW-620 23.4 µM | MDA-MB-231 16.9 µM | SNB-19 23.8 µM | EKVX 33.4 µM | UACC-257 > 41.4 µM

CN(C)/N=C/c1cn(C)c(=O)n(C)c1=O
inactive: SF-539 > 100 µM | SK-MEL-28 > 100 µM | SK-OV-3 > 100 µM | Malme-3M > 100 µM | UO-31 > 100 µM | MCF7 > 100 µM | HCT-116 > 100 µM | M14 > 100 µM | OVCAR-4 > 100 µM | RPMI-8226 > 100 µM | A549 > 100 µM | UACC-62 > 100 µM | OVCAR-8 > 100 µM | MDA-N > 100 µM | NCI-H226 > 100 µM | SW-620 > 100 µM | MDA-MB-231 > 100 µM | SNB-19 > 100 µM | EKVX > 100 µM | UACC-257 > 100 µM

Nc1cccc(OCC2CCCN3CCCCC23)c1 (stereo not given)
inactive: SF-539 18.3 µM | SK-MEL-28 19.1 µM | SK-OV-3 72.9 µM | Malme-3M 23.5 µM | UO-31 27.2 µM | MCF7 19.5 µM | HCT-116 16.3 µM | M14 20 µM | OVCAR-4 23.2 µM | RPMI-8226 15.2 µM | A549 21.4 µM | UACC-62 17.1 µM | OVCAR-8 18.7 µM | MDA-N 16 µM | NCI-H226 41.7 µM | SW-620 21.3 µM | MDA-MB-231 17.2 µM | SNB-19 17.9 µM | EKVX 17.2 µM | UACC-257 19 µM

CCCCCCCCCCCCCCCC(=O)OC1C(O)C(O)C(O)C(O)C12CO2 (stereo not given)
inactive: SF-539 25.8 µM | SK-MEL-28 > 100 µM | SK-OV-3 51.4 µM | Malme-3M > 100 µM | UO-31 68.4 µM | MCF7 16.2 µM | HCT-116 24.3 µM | M14 > 100 µM | OVCAR-4 55.1 µM | RPMI-8226 26.4 µM | A549 > 100 µM | UACC-62 28.4 µM | OVCAR-8 22.8 µM | MDA-N > 100 µM | NCI-H226 42.8 µM | SW-620 14.7 µM | MDA-MB-231 34.4 µM | SNB-19 > 100 µM | EKVX 22.7 µM | UACC-257 > 100 µM
